Converted amounts (≈) assume the structure as drawn.
Tested on: measles virus
Experiment: microbe, parasite or virus in culture
Details: Measles morbillivirus, 24 h

## CCOc1nn(-c2ccc(C3CC3)cn2)c(C)c1Oc1cccc(C(F)(F)F)c1 [example 93, 5-cyclopropyl-2-(3-ethoxy-5-methyl-4-(3-(trifluoromethyl)phenoxy)-1H-pyrazol-1-yl)pyridine]
  MIC50: 0.05 to 0.5 µM (≈ 0.0202 to 0.202 µg/mL)

## CCOc1nn(-c2ccc(C3CC3)cn2)c(C)c1Oc1ccc(C(F)(F)F)cc1 [example 94, 5-cyclopropyl-2-(3-ethoxy-5-methyl-4-(4-(trifluoromethyl)phenoxy)-1H-pyrazol-1-yl)pyridine]
  MIC50: 0.5 to 5 µM (≈ 0.202 to 2.02 µg/mL)

## CCOc1nn(-c2ccc(C3CC3)cn2)c(C)c1Oc1cc(Cl)ccc1Cl [example 95, 5-cyclopropyl-2-(4-(2,5-dichlorophenoxy)-3-ethoxy-5-methyl-1H-pyrazol-1-yl)pyridine]
  MIC50: 0.05 to 0.5 µM (≈ 0.0202 to 0.202 µg/mL)

## CCOc1nn(-c2ccc(C3CC3)cn2)c(C)c1Oc1cc(Cl)cc(Cl)c1 [example 96, 5-cyclopropyl-2-(4-(3,5-dichlorophenoxy)-3-ethoxy-5-methyl-1H-pyrazol-1-yl)pyridine]
  MIC50: 0.05 to 0.5 µM (≈ 0.0202 to 0.202 µg/mL)

## Cc1c(Oc2cccc(F)c2)c(OC(C)C)nn1-c1ccc(C2CC2)cn1 [example 97, 5-cyclopropyl-2-(4-(3-fluorophenoxy)-3-isopropoxy-5-methyl-1H-pyrazol-1-yl)pyridine]
  MIC50: 0.05 to 0.5 µM (≈ 0.0184 to 0.184 µg/mL)

## Cc1c(Oc2ccc(F)cc2)c(OC(C)C)nn1-c1ccc(C2CC2)cn1 [example 98, 5-cyclopropyl-2-(4-(4-fluorophenoxy)-3-isopropoxy-5-methyl-1H-pyrazol-1-yl)pyridine]
  MIC50: 0.5 to 5 µM (≈ 0.184 to 1.84 µg/mL)

## CCOc1nn(-c2ccc(C(C)(F)F)cn2)c(C)c1Cc1ccccc1 [example 99, 2-(4-benzyl-3-ethoxy-5-methyl-1H-pyrazol-1-yl)-5-(1,1-difluoroethyl)pyridine]
  MIC50: 0.5 to 5 µM (≈ 0.179 to 1.79 µg/mL)

## CC(C)Oc1nn(-c2ncc(C3CC3)cn2)cc1Oc1ccccc1 [example 100, 5-cyclopropyl-2-(3-isopropoxy-4-phenoxy-1H-pyrazol-1-yl)pyrimidine]
  MIC50: 0.05 to 0.5 µM (≈ 0.0168 to 0.168 µg/mL)

## CCc1cnc(-n2nc(OC(C)C)c(Cc3ccccc3OC)c2C)nc1 [example 101, 5-ethyl-2-(3-isopropoxy-4-(2-methoxybenzyl)-5-methyl-1H-pyrazol-1-yl)pyrimidine]
  MIC50: 0.0005 to 0.05 µM (≈ 0.000183 to 0.0183 µg/mL)

## CCc1cnc(-n2nc(OC(C)C)c(Cc3cccc(OC)c3)c2C)nc1 [example 102, 5-ethyl-2-(3-isopropoxy-4-(3-methoxybenzyl)-5-methyl-1H-pyrazol-1-yl)pyrimidine]
  MIC50: 0.0005 to 0.05 µM (≈ 0.000183 to 0.0183 µg/mL)

## CCc1cnc(-n2nc(OCCOCc3ccccc3)c(Cc3ccccc3)c2C)nc1 [example 103, 2-(4-benzyl-3-(2-(benzyloxy)ethoxy)-5-methyl-1H-pyrazol-1-yl)-5-ethylpyrimidine]
  MIC50: 0.0005 to 0.05 µM (≈ 0.000214 to 0.0214 µg/mL)

## CC(C)Oc1nn(-c2ncc(C3CC3)cn2)cc1Sc1ccccc1 [example 104, 5-cyclopropyl-2-(3-isopropoxy-4-(phenylthio)-1H-pyrazol-1-yl)pyrimidine]
  MIC50: 0.0005 to 0.05 µM (≈ 0.000176 to 0.0176 µg/mL)

## CC(C)Oc1nn(-c2ccc(C3CC3)cn2)cc1Sc1ccccc1 [example 105, 5-cyclopropyl-2-(3-isopropoxy-4-(phenylthio)-1H-pyrazol-1-yl)pyridine]
  MIC50: 0.05 to 0.5 µM (≈ 0.0176 to 0.176 µg/mL)

## CCOc1nn(-c2ncc(CC)cn2)c(C)c1I [example 106, 2-(3-ethoxy-4-iodo-5-methyl-1H-pyrazol-1-yl)-5-ethylpyrimidine]
  MIC50: > 5 µM

## CCOc1nn(-c2ncc(CC)cn2)cc1I [example 107, 2-(3-ethoxy-4-iodo-1H-pyrazol-1-yl)-5-ethylpyrimidine]
  MIC50: > 5 µM

## CCOc1nn(-c2ccc(C3CC3)cn2)c(C)c1I [example 108, 5-cyclopropyl-2-(3-ethoxy-4-iodo-5-methyl-1H-pyrazol-1-yl)pyridine]
  MIC50: > 5 µM

## CC(C)Oc1nn(-c2ccc(C3CC3)cn2)cc1C(=O)c1ccccc1 [example 109, (1-(5-cyclopropylpyridin-2-yl)-3-isopropoxy-1H-pyrazol-4-yl)(phenyl)methanone]
  MIC50: 0.5 to 5 µM (≈ 0.174 to 1.74 µg/mL)

## Cc1c(Oc2cccnc2)c(OC(C)C)nn1-c1ncc(C2CC2)cn1 [example 110, 5-cyclopropyl-2-(3-isopropoxy-5-methyl-4-(pyridin-3-yloxy)-1H-pyrazol-1-yl)pyrimidine]
  MIC50: 0.5 to 5 µM (≈ 0.176 to 1.76 µg/mL)

## CCc1cnc(-n2nc(OC(C)C)c(Cc3ccc(OC)cc3)c2C)nc1 [example 111, 5-ethyl-2-(3-isopropoxy-4-(4-methoxybenzyl)-5-methyl-1H-pyrazol-1-yl)pyrimidine]
  MIC50: 0.05 to 0.5 µM (≈ 0.0183 to 0.183 µg/mL)

## CCOc1nn(-c2ncc(OC)cn2)c(C)c1Cc1ccccc1 [example 112, 2-(4-benzyl-3-ethoxy-5-methyl-1H-pyrazol-1-yl)-5-methoxypyrimidine]
  MIC50: 0.5 to 5 µM (≈ 0.162 to 1.62 µg/mL)

## CCOc1nn(-c2nccc(C)n2)c(C)c1Cc1ccccc1 [example 113, 2-(4-benzyl-3-ethoxy-5-methyl-1H-pyrazol-1-yl)-4-methylpyrimidine]
  MIC50: 0.5 to 5 µM (≈ 0.154 to 1.54 µg/mL)

## CCCCc1c(OCC)nn(-c2ncc(CC)cn2)c1C [example 114, 2-(4-butyl-3-ethoxy-5-methyl-1H-pyrazol-1-yl)-5-ethylpyrimidine]
  MIC50: 0.5 to 5 µM (≈ 0.144 to 1.44 µg/mL)

## CCOc1nn(-c2ncc(CC)cn2)c(CN2CCOCC2)c1Cc1ccccc1 [example 115, 4-((4-benzyl-3-ethoxy-1-(5-ethylpyrimidin-2-yl)-1H-pyrazol-5-yl)methyl)morpholine]
  MIC50: > 5 µM

## Cc1cnc(-n2nc(OC(C)C)c(Oc3c(F)cccc3F)c2C)nc1O [example 116, 2-(4-(2,6-difluorophenoxy)-3-isopropoxy-5-methyl-1H-pyrazol-1-yl)-5-methylpyrimidin-4-ol]
  MIC50: 0.05 to 0.5 µM (≈ 0.0188 to 0.188 µg/mL)

## CCc1cnc(-n2nc(OC(C)C)c(Oc3c(F)cccc3F)c2C)nc1O [example 117, 2-(4-(2,6-difluorophenoxy)-3-isopropoxy-5-methyl-1H-pyrazol-1-yl)-5-ethylpyrimidin-4-ol]
  MIC50: 0.0005 to 0.05 µM (≈ 0.000195 to 0.0195 µg/mL)

## CCCc1cnc(-n2nc(OC(C)C)c(Oc3c(F)cccc3F)c2C)nc1O [example 117A, 2-(4-(2,6-difluorophenoxy)-3-isopropoxy-5-methyl-1H-pyrazol-1-yl)-5-propylpyrimidin-4-ol]
  MIC50: 0.05 to 0.5 µM (≈ 0.0202 to 0.202 µg/mL)

## CCc1nnc(-n2nc(OC(C)C)c(Oc3c(F)cccc3F)c2C)nc1O [example 118, 3-(4-(2,6-difluorophenoxy)-3-isopropoxy-5-methyl-1H-pyrazol-1-yl)-6-ethyl-1,2,4-triazin-5-ol]
  MIC50: 0.0005 to 0.05 µM (≈ 0.000196 to 0.0196 µg/mL)

## c1ccc(Oc2cn(-c3ncc(C4CC4)cn3)nc2C2CC2)cc1 [example 119, 5-cyclopropyl-2-(3-cyclopropyl-4-phenoxy-1H-pyrazol-1-yl)pyrimidine]
  MIC50: 0.0005 to 0.05 µM (≈ 0.000159 to 0.0159 µg/mL)

## c1ccc(Oc2cn(-c3ccc(C4CC4)cn3)nc2C2CC2)cc1 [example 120, 5-cyclopropyl-2-(3-cyclopropyl-4-phenoxy-1H-pyrazol-1-yl)pyridine]
  MIC50: 0.05 to 0.5 µM (≈ 0.0159 to 0.159 µg/mL)

## CCc1cnc(-n2nc(CC(C)C)c(Cc3ccccc3)c2C)nc1 [example 121, 2-(4-benzyl-3-isobutyl-5-methyl-1H-pyrazol-1-yl)-5-ethylpyrimidine]
  MIC50: 0.0005 to 0.05 µM (≈ 0.000167 to 0.0167 µg/mL)

## CCOc1nn(-c2ncccn2)c(C)c1Cc1ccccc1 [example 123, 2-(4-benzyl-3-ethoxy-5-methyl-1H-pyrazol-1-yl)pyrimidine]
  MIC50: 0.5 to 5 µM (≈ 0.147 to 1.47 µg/mL)

## CCOc1nn(-c2ccc(C)nc2)c(C)c1Cc1ccccc1 [example 124, 5-(4-benzyl-3-ethoxy-5-methyl-1H-pyrazol-1-yl)-2-methylpyridine]
  MIC50: 0.5 to 5 µM (≈ 0.154 to 1.54 µg/mL)

## CCOc1nn(-c2ccc(OC)cn2)c(C)c1Cc1ccccc1 [example 125, 2-(4-benzyl-3-ethoxy-5-methyl-1H-pyrazol-1-yl)-5-methoxypyridine]
  MIC50: 0.5 to 5 µM (≈ 0.162 to 1.62 µg/mL)

## COc1ccc(-n2nc(OC(C)C)c(Oc3c(F)cccc3F)c2C)nc1 [example 126, 2-(4-(2,6-difluorophenoxy)-3-isopropoxy-5-methyl-1H-pyrazol-1-yl)-5-methoxypyridine]
  MIC50: 0.05 to 0.5 µM (≈ 0.0188 to 0.188 µg/mL)

## CCOc1nn(-c2ccc(C)cn2)c(C)c1Oc1ccccc1 [example 127, 2-(3-ethoxy-5-methyl-4-phenoxy-1H-pyrazol-1-yl)-5-methylpyridine]
  MIC50: 0.5 to 5 µM (≈ 0.155 to 1.55 µg/mL)

## Cc1ccc(-n2nc(OC(C)C)c(Oc3c(F)cccc3F)c2C)cn1 [example 128, 5-(4-(2,6-difluorophenoxy)-3-isopropoxy-5-methyl-1H-pyrazol-1-yl)-2-methylpyridine]
  MIC50: 0.0005 to 0.05 µM (≈ 0.00018 to 0.018 µg/mL)

## CCc1ccc(-n2nc(OC(C)C)c(Oc3c(F)cccc3F)c2C)cn1 [example 129, 5-(4-(2,6-difluorophenoxy)-3-isopropoxy-5-methyl-1H-pyrazol-1-yl)-2-ethylpyridine]
  MIC50: 0.0005 to 0.05 µM (≈ 0.000187 to 0.0187 µg/mL)

## COc1ccc(-n2nc(OC(C)C)c(Oc3c(F)cccc3F)c2C)cn1 [example 130, 5-(4-(2,6-difluorophenoxy)-3-isopropoxy-5-methyl-1H-pyrazol-1-yl)-2-methoxypyridine]
  MIC50: 0.5 to 5 µM (≈ 0.188 to 1.88 µg/mL)

## Cc1c(Oc2c(F)cccc2F)c(OC(C)C)nn1-c1cnc(C(C)(C)C)nc1 [example 131, 2-tert-butyl-5-(4-(2,6-difluorophenoxy)-3-isopropoxy-5-methyl-1H-pyrazol-1-yl)pyrimidine]
  MIC50: 0.05 to 0.5 µM (≈ 0.0201 to 0.201 µg/mL)

## CCc1ccc(-n2nc(OC(C)C)c(Cc3ccccc3)c2C)cc1 [example 132, 4-benzyl-1-(4-ethylphenyl)-3-isopropoxy-5-methyl-1H-pyrazole]
  MIC50: 0.5 to 5 µM (≈ 0.167 to 1.67 µg/mL)

## Cc1c(Oc2c(F)cccc2F)c(OC(C)C)nn1-c1cnc(C2CC2)nc1 [example 133, 2-cyclopropyl-5-(4-(2,6-difluorophenoxy)-3-isopropoxy-5-methyl-1H-pyrazol-1-yl)pyrimidine]
  MIC50: 0.05 to 0.5 µM (≈ 0.0193 to 0.193 µg/mL)

## CCOc1nn(-c2ccccc2)c(C)c1Cc1ccccc1 [example 134, 4-benzyl-3-ethoxy-5-methyl-1-phenyl-1H-pyrazole]
  MIC50: 0.5 to 5 µM (≈ 0.146 to 1.46 µg/mL)

## CCc1cnc(-n2[nH]c(=O)c(Cc3ccccc3)c2C)nc1 [example 135, 4-benzyl-1-(5-ethylpyrimidin-2-yl)-5-methyl-1H-pyrazol-3(2H)-one]
  MIC50: 0.5 to 5 µM (≈ 0.147 to 1.47 µg/mL)

## Cc1c(Cc2ccccc2)c(O)nn1-c1ncc(C2CC2)cn1 [example 136, 4-benzyl-1-(5-cyclopropylpyrimidin-2-yl)-5-methyl-1H-pyrazol-3-ol]
  MIC50: 0.5 to 5 µM (≈ 0.153 to 1.53 µg/mL)

## COc1nn(-c2ccc(C)cn2)c(C)c1Cc1ccccc1 [example 137, 2-(4-benzyl-3-methoxy-5-methyl-1H-pyrazol-1-yl)-5-methylpyridine]
  MIC50: 0.5 to 5 µM (≈ 0.147 to 1.47 µg/mL)

## COc1nn(-c2ncc(C3CC3)cn2)c(C)c1Cc1ccccc1 [example 138, 2-(4-benzyl-3-methoxy-5-methyl-1H-pyrazol-1-yl)-5-cyclopropylpyrimidine]
  MIC50: 0.05 to 0.5 µM (≈ 0.016 to 0.16 µg/mL)
